From patent US7488468B1, “Near infrared fluorescent contrast agent and fluorescence imaging” (Schering AG, priority 1998, dated 2009) come the findings set out here.

The subject of one data set is mice. The data set is described as follows: Acute toxicity. It counts as in vivo. Particulars: intravenous injection from tail vein, conscious mice, monitored for 3 days. The protocol: Reduction of toxicity by the introduction of sulfonic acid group and reduction thereof by conversion into sodium salt were studied.
Each test compound was dissolved in distilled water to give a compound solution. This solution was intravenously injected to the conscious mice from the tail vein. The mice were monitored for 3 days after the administration, and acute toxicity [LD50 (mg/kg body weight)] was estimated.

Data set [1] in a line: Partition coefficient (log Po/w) of n-butanol/water. It counts as physicochemical. Particulars: n-butanol/water two-phase system. From the text:
The fluorescent contrast agent to be used in a living body should be particularly water soluble. […] For easy synthesis, the number of the sulfonic acid groups is not more than 10, preferably not more than 8. The improvement in the water solubility can be determined by measuring partition coefficient of each compound, which for example, may be measured in a two-phase system of butanol/water. More specifically, introduction of 3 or more sulfonic acid groups results in a partition coefficient log Po/w of n-butanol/water of not more than −1.00.

For the molecule `CC1(C)C(=CC=CC2=[N+](CCCS(=O)(=O)[O-])c3ccccc3C2(C)C)N(CCCS(=O)(=O)[O-])c2ccccc21.[Na+]` [NK-1967], in the data set with mice, the LD50 was 20 mg/kg body weight. Also, the “log Po/w (butanol/water)” value in data set [1] is on record as 0.34.
